The structures appear in SMILES notation.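 All cell lines were grown in 96-well plates and treated with compound for 48 hours. GI50: concentration for 50% inhibition of growth. At the TGI there is no net growth.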 A value given as a limit tells only on which side of the number the result lay.

Some test systems named below: HCT-116 colon; OVCAR-3 ovarian; COLO 205 colon; SK-MEL-28 melanoma; NCI-H460 lung; SNB-75 CNS; OVCAR-4 ovarian; HOP-62 NSCLC; HCT-15 colon; SK-OV-3 ovarian.
Common to all, as to assay: DTP human tumour cell line panel, 48 h

In the case of `Nc1c(C(=O)c2cccc(CCC3(O)CCCC3)c2)cnn1-c1ccc(F)cc1`, the GI50 in the test with HCT-116 colon is 18.5 µM; in the test on OVCAR-3 ovarian, over 18 µM; in the test with COLO 205 colon, 16.6 µM; in the test on SK-MEL-28 melanoma it was over 22.9 µM; in the test on NCI-H460 lung it was 20.5 µM; in the test with SNB-75 CNS, 8.47 µM. The GI50 with OVCAR-4 ovarian was 8.71 µM; in the test with HOP-62 NSCLC, over 25 µM; with HCT-15 colon it was 18.7 µM; in the test on SK-OV-3 ovarian, over 25 µM. For the same compound, the total growth inhibition concentration (TGI) in the test with HCT-116 colon, in the test on OVCAR-3 ovarian, in the test with COLO 205 colon, with SK-MEL-28 melanoma, in the test with NCI-H460 lung and with SNB-75 CNS was over 25 µM throughout. In addition, the TGI with OVCAR-4 ovarian, in the test with HOP-62 NSCLC, in the test on HCT-15 colon and with SK-OV-3 ovarian was over 25 µM in each case.

As for `CCOC(=O)[C@H]1Nc2ccc(Cl)cc2[C@H]2OCC[C@@H]12`, the total growth inhibition concentration (TGI) with HCT-116 colon, with OVCAR-3 ovarian, in the test on COLO 205 colon, in the test on SK-MEL-28 melanoma, in the test on NCI-H460 lung and in the test on SNB-75 CNS was over 100 µM throughout. Moreover, the total growth inhibition concentration (TGI) with OVCAR-4 ovarian, in the test on HOP-62 NSCLC, with HCT-15 colon and in the test on SK-OV-3 ovarian was over 100 µM in each case.

On to `CN(C)C(=O)c1cc2cnc(Nc3ccc(-c4csc5c(=O)cc(N6CCNCC6)oc45)cc3)nc2n1C1CCCC1`, for which the GI50 in the test with HCT-116 colon was 0.318 µM; in the test with OVCAR-3 ovarian, 0.871 µM; in the test with COLO 205 colon, 0.671 µM; in the test with SK-MEL-28 melanoma, 2.14 µM; in the test on NCI-H460 lung it was 0.814 µM; in the test with SNB-75 CNS, 0.313 µM. For the same compound, the GI50 was 1.34 µM in the test on OVCAR-4 ovarian, 1.03 µM with HOP-62 NSCLC, 1.84 µM with HCT-15 colon and 6.21 µM in the test with SK-OV-3 ovarian. Further, the TGI in the test with HCT-116 colon is 1.4 µM; in the test with OVCAR-3 ovarian, 2.72 µM; in the test on COLO 205 colon it was 4.64 µM; in the test on SK-MEL-28 melanoma it was 6.88 µM; in the test on NCI-H460 lung, 2.35 µM; in the test with SNB-75 CNS, 2.03 µM. The total growth inhibition concentration (TGI) in the test on OVCAR-4 ovarian is 5.73 µM; with HOP-62 NSCLC, 10.6 µM; in the test with HCT-15 colon, 5.79 µM; in the test with SK-OV-3 ovarian it was 21.2 µM.

For `COc1ccc2c(c1)sc1nc(-c3ccccc3)c(-c3ccc(O)c(OC)c3)n12`, the GI50 in the test on HCT-116 colon was 4.95 µM; with OVCAR-3 ovarian it was 10.1 µM; with COLO 205 colon, 5.3 µM; with SK-MEL-28 melanoma, 8.99 µM; in the test with NCI-H460 lung, 6.51 µM; with SNB-75 CNS, 11.1 µM. Besides, the GI50 with OVCAR-4 ovarian was 39.1 µM; in the test with HOP-62 NSCLC, 37.8 µM; with HCT-15 colon, 4.03 µM; in the test on SK-OV-3 ovarian, 19.6 µM. Further, the TGI with HCT-116 colon was over 100 µM; in the test with OVCAR-3 ovarian, 63.8 µM; in the test with COLO 205 colon it was 34.6 µM; in the test with SK-MEL-28 melanoma, over 100 µM; with NCI-H460 lung it was over 100 µM; in the test on SNB-75 CNS it was over 100 µM. Besides, the TGI with OVCAR-4 ovarian, in the test with HOP-62 NSCLC, with HCT-15 colon and in the test on SK-OV-3 ovarian was over 100 µM throughout.

`Cc1ccc(NC(=O)CC/C(CC(=O)c2ccc(F)cc2)=N\NC(=O)C(=O)NN)cc1C`: the total growth inhibition concentration (TGI) in the test with HCT-116 colon, with OVCAR-3 ovarian, in the test on COLO 205 colon, in the test with SK-MEL-28 melanoma, in the test with NCI-H460 lung and with SNB-75 CNS was over 100 µM in each case. For the same compound, the TGI in the test on OVCAR-4 ovarian, in the test on HOP-62 NSCLC, with HCT-15 colon and in the test with SK-OV-3 ovarian was over 100 µM throughout.

As to `Cc1ccccc1NC(=O)C1C(=O)N(c2ccccc2C)C(=O)/C1=N\N` (stereo not given), the concentration for total growth inhibition (TGI) in the test with HCT-116 colon, with OVCAR-3 ovarian, with COLO 205 colon, in the test with SK-MEL-28 melanoma, in the test with NCI-H460 lung and in the test on SNB-75 CNS was over 100 µM each time. In addition, the total growth inhibition concentration (TGI) in the test with OVCAR-4 ovarian, in the test on HOP-62 NSCLC, in the test with HCT-15 colon and in the test on SK-OV-3 ovarian was over 100 µM each time.

Regarding `O=C(O)CCCCCO`, the TGI with HCT-116 colon, in the test with OVCAR-3 ovarian, in the test on COLO 205 colon, with SK-MEL-28 melanoma, in the test with NCI-H460 lung and in the test with SNB-75 CNS was over 100 µM each time. Moreover, the TGI with OVCAR-4 ovarian, with HOP-62 NSCLC, with HCT-15 colon and in the test on SK-OV-3 ovarian was over 100 µM throughout.

On to `COc1ccc(-c2cc(-c3cn[nH]c3-c3ccccn3)ccn2)cc1`, for which the GI50 in the test on HCT-116 colon, in the test with OVCAR-3 ovarian, in the test on COLO 205 colon, in the test with SK-MEL-28 melanoma, in the test on NCI-H460 lung and with SNB-75 CNS was over 25 µM each time. Further, the GI50 in the test on OVCAR-4 ovarian, in the test with HOP-62 NSCLC, in the test with HCT-15 colon and with SK-OV-3 ovarian was over 25 µM in each case. Also, the total growth inhibition concentration (TGI) in the test with HCT-116 colon, in the test with OVCAR-3 ovarian, with COLO 205 colon, with SK-MEL-28 melanoma, in the test on NCI-H460 lung and in the test on SNB-75 CNS was over 25 µM each time. The total growth inhibition concentration (TGI) in the test on OVCAR-4 ovarian, in the test with HOP-62 NSCLC, in the test on HCT-15 colon and in the test on SK-OV-3 ovarian was over 25 µM each time.

The values above are taken from PubChem BioAssay (NCI).
